Assay results: patent publication US20100126680A1, “Method For Controlling Enzymatic Decomposition Of Peroxide and Products Thereof” (BUCKMAN LABORATORIES INTERNATIONAL, INC., priority 2008, published 2010)

Assays:
Format in all cases: biochemical
[1] = system: wild catalase in de-inking white water; assay: Filter paper float test of catalase de-activation using de-inking white water
Description: (§1) A filter paper float test was carried out to study catalase deactivation performance of aldehyde-functional polymers and a conventional catalase inhibitor on bleached paper. In a typical float test, a one-inch square piece of filter paper was saturated with 50% H2O2 solution. With excess H2O2 solution being removed, the treated filter paper was submerged in 200 mL aqueous catalase solution or 200 mL de-inking white water. The catalase solution was prepared by diluting a commercial catalase solution with either distilled water or papermaking white water. Various amounts of the catalase inhibitors being studied were mixed with the catalase solution or de-inking white water for five minutes before the treated filter paper was submerged in the catalase solution or de-inking white paper. Controls also were carried out in which no catalase inhibitor was added to the catalase solution or de-inking paper before the treated filter was submerged therein. The time that was required for the filter paper to rise to the solution surface was recorded and used to determine H2O2 decomposition rate. A longer time for the filter paper to rise to the surface indicated a slower H2O2 decomposition rate.
As an initial observation made with respect to the controls that contained no catalase inhibitor, a significant difference was observed between the papermaking and de-inking sources of white water with respect to wild catalase content. […] The presence of wild catalase in the de-inking white water was confirmed by the float tests. It only took about 40 seconds for the peroxide-treated filter paper to rise to the surface of the de-inking white water that had not been treated with catalase inhibitor (e.g., see Control A, Table 4 below).
Float tests were also carried out with the de-inking white water obtained from a papermaking mill. Various amounts of the catalase inhibitors being studied for this example were mixed with the de-inking white water for five minutes before the treated filter paper was submerged in the de-inking white water. […]

[2] = system: commercial catalase TERMINOX® Ultra 50L; assay: Filter paper float test of catalase de-activation using papermaking white water; settings: 500 ppm inhibitor
Description: as §1
To test the effect of dissolved and colloidal substances on catalase inhibitors, float tests were also carried out with the white water obtained from a newsprint papermaking mill. […]

[3] = system: commercial catalase TERMINOX® Ultra 50L; assay: Filter paper float test of catalase de-activation using distilled water; settings: for Float time: 20 μL catalase/1000 mL distilled water, no-inhibitor float time 75 sec
Description: as §1
Catalase de-activation performance of a glyoxalated polyacrylamide (G-PAM) and glutaraldehyde was tested with the filter paper float test using distilled water. As indicated, in a typical test, a square piece of filter was first saturated with 50% H2O2 solution. Various amounts of the two types of catalase inhibitors being studied in this example were mixed with the catalase solution prepared with distilled water for five minutes before the treated filter paper was submerged in the catalase solution. Once the treated filter paper was submerged in catalase solution, catalase started decomposing H2O2 molecules, releasing O2 gas. The faster the H2O2 decomposition rate, the faster the O2 gas being generated, and the shorter the time required for the filter paper to rise to the solution surface. On the other hand, the presence of catalase inhibition will slow down the H2O2 decomposition rate, resulting in longer periods of time for the filter paper to rise to the surface.
Table 1 presents the results of the float tests conducted with 20 μL commercial catalase TERMINOX® Ultra 50L diluted by 1000 mL distilled water to prepare the catalase solution. As indicated, glutaraldehyde and glyoxalated polyacrylamide were studied as the catalytic inhibitors. Glutaraldehyde was chosen as a control for this example. Large quantities of glutaraldehyde are commercially used as a catalase inhibitor. BUBOND® 387 was the source of the glyoxalated polyacrylamide.

O=CCCCC=O [Glutaraldehyde]
Float time ([1]; Dosage 2000 ppm, de-inking white water pre-treated with 1000 ppm BUSAN® 1078 bactericide for 30 minutes, no-inhibitor Control B 35 sec): 40 s
Float time ([1]; Dosage 2000 ppm, de-inking white water, no-inhibitor Control A 39 sec): 68 s
Float time ([1]; Dosage 4000 ppm, de-inking white water pre-treated with 1000 ppm BUSAN® 1078 bactericide for 30 minutes, no-inhibitor Control B 35 sec): 37 s
Float time ([2]; 10 μL catalase/1000 mL papermaking white water, no-inhibitor float time 197 sec): 301 s
Float time ([2]; 20 μL catalase/1000 mL papermaking white water, no-inhibitor float time 67 sec): 130 s
Float time ([3]; 50 ppm inhibitor): 80 s
Float time ([3]; 100 ppm inhibitor): 72 s
Float time ([3]; 150 ppm inhibitor): 88 s
Float time ([3]; 200 ppm inhibitor): 103 s
Float time ([3]; 300 ppm inhibitor): 117 s
Float time ([3]; 500 ppm inhibitor): 128 s
filter paper float time ([3]; below 100 ppm inhibitor, distilled water catalase solution): around 75 seconds
